Test results as given in patent US8404692B2, “Pyrimidin-4-yl-3, 4-dihydro-2H-pyrrolo [1,2A] pyrazin-1-one compounds” (Cyclacel Limited, priority 2005, dated 2013).

These molecules were tested against T1, aurora-A (human) (Homo sapiens, UniProt O14965) (assay: Aurora-A (human) kinase assay). Conditions: read-out: Activity (Aurora A activity, IC50 grading).
T1 construct: purchased Upstate, Dundee, UK
T1 sequence (O14965 1-403): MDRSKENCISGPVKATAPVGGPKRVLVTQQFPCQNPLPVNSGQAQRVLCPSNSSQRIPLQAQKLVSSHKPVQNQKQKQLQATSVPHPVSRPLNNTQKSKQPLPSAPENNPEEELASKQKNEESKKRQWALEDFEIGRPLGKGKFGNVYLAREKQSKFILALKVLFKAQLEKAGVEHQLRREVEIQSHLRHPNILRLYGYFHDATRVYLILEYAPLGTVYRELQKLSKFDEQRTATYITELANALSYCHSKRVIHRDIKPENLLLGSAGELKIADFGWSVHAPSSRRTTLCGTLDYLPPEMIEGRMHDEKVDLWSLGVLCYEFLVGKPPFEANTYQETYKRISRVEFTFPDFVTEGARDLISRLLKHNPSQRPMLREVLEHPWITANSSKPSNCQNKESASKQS
Assay type: biochemical
Procedure: This was achieved by measurement of incorporation of radioactive phosphate from ATP into Kemptide substrate (LRRASLG), upon phosphorylation by commercially obtained aurora-A (human, Upstate; Dundee, UK). Assays were performed using 96-well plates and appropriate assay buffers (20 mM Tris, 25 mM β-glycerophosphate, 5 mM EGTA, 1 mM DTT, 1 mM sodium vanadate, pH 7.5), into which were added 2-5 ng of active enzyme with 500 μM substrate (Kemptide). The reactions were initiated by addition of MATP mix (15 mM MgCl2+100 μM ATP with 15-25 kBq per well of [γ-^32P]-ATP) and mixtures incubated for 30 min at 30° C. Reactions were stopped by addition of an equal volume of 75 mM aq orthophosphoric acid, followed by filtration through p81 filterplates (Whatman Polyfiltronics, Kent, UK). After washing 4 times with 75 mM aq orthophosphoric acid, plates were dried, scintillant added and incorporated radioactivity measured in a scintillation counter (TopCount, Packard Instruments, Pangbourne, Berks, UK). Compounds for kinase assay were made up as 10 mM stocks in DMSO and diluted into 10% DMSO in assay buffer. Data was analysed using curve-fitting software (XLfit version 4.0.2, IDBS, Guildford, Surrey, UK) to determine IC50 values (concentration of test compound which inhibits kinase activity by 50%).

Cc1c(-c2ccnc(Nc3ccc4sc(C(=O)O)cc4c3)n2)c(C)n2c1C(=O)NCC2 [Example I-16, 5-[4-(6,8-Dimethyl-1-oxo-1,2,3,4-tetrahydro-pyrrolo[1,2-a]pyrazin-7-yl)-pyrimidin-2-ylamino]-benzo[b]thiophene-2-carboxylic acid] and Cc1c(-c2ccnc(Nc3cccc(C(=O)O)c3)n2)c(C)n2c1C(=O)NCC2 [Example I-25, [4-(6,8-Dimethyl-1-oxo-1,2,3,4-tetrahydro-pyrrolo[1,2-a]pyrazin-7-yl)-pyrimidin-2-ylamino]-benzoic acid] cannot be ordered by IC50: less than 100 nM for the first, less than 1000 nM for the second.

Cc1c(-c2ccnc(Nc3ccc(O)cc3)n2)c(C)n2c1C(=O)NCC2 [Example I-17, 7-[2-(4-Hydroxy-phenylamino)-pyrimidin-4-yl]-6,8-dimethyl-3,4-dihydro-2H-pyrrolo[1,2-a]pyrazin-1-one] and Cc1ccc(Nc2nccc(-c3c(C)c4n(c3C)CCNC4=O)n2)cc1 [Example I-39, 6,8-Dimethyl-7-(2-p-tolylamino-pyrimidin-4-yl)-3,4-dihydro-2H-pyrrolo[1,2-a]pyrazin-1-one] cannot be ordered by IC50: less than 1000 nM for the first, less than 1000 nM for the second.

COc1cc(Nc2nccc(-c3c(C)c4n(c3C)CCNC4=O)n2)ccc1S(=O)(=O)NC(C)C [Example I-18, 4-[4-(6,8-Dimethyl-1-oxo-1,2,3,4-tetrahydro-pyrrolo[1,2-a]pyrazin-7-yl)-pyrimidin-2-ylamino]-N-isopropyl-2-methoxy-benzenesulfonamide] and CNS(=O)(=O)c1ccc(Nc2nccc(-c3c(C)c4n(c3C)CCNC4=O)n2)cc1OC [Example I-43, 4-[4-(6,8-Dimethyl-1-oxo-1,2,3,4-tetrahydropyrrolo[1,2-a]pyrazin-7-yl)-pyrimidin-2-ylamino]-2-methoxy-N-methyl-benzenesulfonamide] cannot be ordered by IC50: less than 100 nM for the first, less than 1000 nM for the second.

Cc1c(-c2ccnc(Nc3ccc(S(=O)(=O)NC(C)C)cc3)n2)c(C)n2c1C(=O)NCC2 [Example I-19, 4-[4-(6,8-Dimethyl-1-oxo-1,2,3,4-tetrahydro-pyrrolo[1,2-a]pyrazin-7-yl)-pyrimidin-2-ylamino]-N-isopropyl-benzenesulfonamide] and Cc1c(-c2ccnc(Nc3ccc(S(C)(=O)=O)cc3)n2)c(C)n2c1C(=O)NCC2 [Example I-33, 7-[2-(4-Methanesulfonyl-phenylamino)-pyrimidin-4-yl]-6,8-dimethyl-3,4-dihydro-2H-pyrrolo[1,2-a]pyrazin-1-one] cannot be ordered by IC50: less than 1000 nM for the first, less than 100 nM for the second.

Cc1c(-c2ccnc(Nc3ccc(NS(C)(=O)=O)cc3)n2)c(C)n2c1C(=O)NCC2 [Example I-20, N-{4-[4-(6,8-Dimethyl-1-oxo-1,2,3,4-tetrahydro-pyrrolo[1,2-a]pyrazin-7-yl)-pyrimidin-2-ylamino]-phenyl}-methanesulfonamide] and Cc1c(-c2ccnc(Nc3cccc(NS(C)(=O)=O)c3)n2)c(C)n2c1C(=O)NCC2 [Example I-42, N-{3-[4-(6,8-Dimethyl-1-oxo-1,2,3,4-tetrahydro-pyrrolo[1,2-a]pyrazin-7-yl)-pyrimidin-2-ylamino]-phenyl}-methanesulfonamide] cannot be ordered by IC50: less than 1000 nM for the first, less than 1000 nM for the second.

CCN(CC)CCCNS(=O)(=O)c1ccc(Nc2nccc(-c3c(C)c4n(c3C)CCNC4=O)n2)cc1C [Example I-21, N-(3-Diethylamino-propyl)-4-[4-(6,8-dimethyl-1-oxo-1,2,3,4-tetrahydro-pyrrolo[1,2-a]pyrazin-7-yl)-pyrimidin-2-ylamino]-2-methyl-benzenesulfonamide] and COc1cc(Nc2nccc(-c3c(C)c4n(c3C)CCNC4=O)n2)ccc1S(=O)(=O)NCCN(C)C [Example I-23, N-(2-Dimethylamino-ethyl)-4-[4-(6,8-dimethyl-1-oxo-1,2,3,4-tetrahydro-pyrrolo[1,2-a]pyrazin-7-yl)-pyrimidin-2-ylamino]-2-methoxy-benzenesulfonamide] cannot be ordered by IC50: less than 10000 nM for the first, less than 1000 nM for the second.

COc1cc(Nc2nccc(-c3c(C)c4n(c3C)CCNC4=O)n2)ccc1S(=O)(=O)N1CCCCC1 [Example I-22, 7-{2-[3-Methoxy-4-(piperidine-1-sulfonyl)-phenylamino]-pyrimidin-4-yl}-6,8-dimethyl-3,4-dihydro-2H-pyrrolo[1,2-a]pyrazin-1-one] and COc1cc(Nc2nccc(-c3c(C)c4n(c3C)CCNC4=O)n2)ccc1S(=O)(=O)N1CCN(C)CC1 [Example I-24, 7-{2-[3-Methoxy-4-(4-methyl-piperazine-1-sulfonyl)-phenylamino]-pyrimidin-4-yl}-6,8-dimethyl-3,4-dihydro-2H-pyrrolo[1,2-a]pyrazin-1-one] cannot be ordered by IC50: less than 1000 nM for the first, less than 1000 nM for the second.

Cc1c(-c2ccnc(Nc3ccc(C(=O)O)cc3)n2)c(C)n2c1C(=O)NCC2 [Example I-26, 4-[4-(6,8-Dimethyl-1-oxo-1,2,3,4-tetrahydro-pyrrolo[1,2-a]pyrazin-7-yl)-pyrimidin-2-ylamino]-benzoic acid] and Cc1c(-c2ccnc(Nc3ccc(C(C)C(=O)O)cc3)n2)c(C)n2c1C(=O)NCC2 (stereo not shown) [Example I-40, 2-{4-[4-(6,8-Dimethyl-1-oxo-1,2,3,4-tetrahydro-pyrrolo[1,2-a]pyrazin-7-yl)-pyrimidin-2-ylamino]-phenyl}-propionic acid] cannot be ordered by IC50: less than 100 nM for the first, less than 1000 nM for the second.

COc1cc(C(=O)O)ccc1Nc1nccc(-c2c(C)c3n(c2C)CCNC3=O)n1 [Example I-27, 4-[4-(6,8-Dimethyl-1-oxo-1,2,3,4-tetrahydro-pyrrolo[1,2-a]pyrazin-7-yl)-pyrimidin-2-ylamino]-3-methoxy-benzoic acid] and COc1ccc(Nc2nccc(-c3c(C)c4n(c3C)CCNC4=O)n2)cc1O [Example I-28, 7-[2-(3-Hydroxy-4-methoxy-phenylamino)-pyrimidin-4-yl]-6,8-dimethyl-3,4-dihydro-2H-pyrrolo[1,2-a]pyrazin-1-one] cannot be ordered by IC50: less than 1000 nM for the first, less than 1000 nM for the second.

Cc1c(-c2ccnc(Nc3ccc4c(c3)OCO4)n2)c(C)n2c1C(=O)NCC2 [Example I-29, 7-[2-(Benzo-[1,3]dioxol-5-ylamino)-pyrimidin-4-yl]-6,8-dimethyl-3,4-dihydro-2H-pyrrolo[1,2-a]pyrazin-1-one] and Cc1c(-c2ccnc(Nc3cccc(O)c3)n2)c(C)n2c1C(=O)NCC2 [Example I-31, 7-[2-(3-Hydroxy-phenylamino)-pyrimidin-4-yl]-6,8-dimethyl-3,4-dihydro-2H-pyrrolo[1,2-a]pyrazin-1-one] cannot be ordered by IC50: less than 1000 nM for the first, less than 1000 nM for the second.

Cc1c(-c2ccnc(Nc3cccc(OC(F)(F)F)c3)n2)c(C)n2c1C(=O)NCC2 [Example I-30, 6,8-Dimethyl-7-[2-(3-trifluoromethoxy-phenylamino)pyrimidin-4-yl]-3,4-dihydro-2H-pyrrolo[1,2-a]pyrazin-1-one] and Cc1c(-c2ccnc(Nc3cccc(OCC(=O)O)c3)n2)c(C)n2c1C(=O)NCC2 [Example I-41, {3-[4-(6,8-Dimethyl-1-oxo-1,2,3,4-tetrahydro-pyrrolo[1,2-a]pyrazin-7-yl)-pyrimidin-2-ylamino]-phenoxy}-acetic acid] cannot be ordered by IC50: less than 10000 nM for the first, less than 100 nM for the second.

Cc1c(-c2ccnc(Nc3cccc(S(C)(=O)=O)c3)n2)c(C)n2c1C(=O)NCC2 [Example I-32, 7-[2-(3-Methanesulfonyl-phenylamino)-pyrimidin-4-yl]-6,8-dimethyl-3,4-dihydro-2H-pyrrolo[1,2-a]pyrazin-1-one] and Cc1c(-c2ccnc(Nc3cccc(S(=O)(=O)N4CCOCC4)c3)n2)c(C)n2c1C(=O)NCC2 [Example I-35, 8-Dimethyl-7-{2-[3-(morpholine-4-sulfonyl)-phenylamino]-pyrimidin-4-yl}-3,4-dihydro-2H-pyrrolo[1,2-a]pyrazin-1-one] cannot be ordered by IC50: less than 100 nM for the first, less than 1000 nM for the second.

Cc1c(-c2ccnc(Nc3cccc(CCC(=O)O)c3)n2)c(C)n2c1C(=O)NCC2 [Example I-34, 3-{3-[4-(6,8-Dimethyl-1-oxo-1,2,3,4-tetrahydro-pyrrolo[1,2-a]pyrazin-7-yl)-pyrimidin-2-ylamino]-phenyl}-propionic acid] and COCCNS(=O)(=O)c1ccc(Nc2nccc(-c3c(C)c4n(c3C)CCNC4=O)n2)cc1 [Example I-38, 4-[4-(6,8-Dimethyl-1-oxo-1,2,3,4-tetrahydro-pyrrolo[1,2-a]pyrazin-7-yl)-pyrimidin-2-ylamino]-N-(2-methoxy-ethyl)-benzenesulfonamide] cannot be ordered by IC50: less than 100 nM for the first, less than 1000 nM for the second.

Cc1ccc(Nc2nccc(-c3c(C)c4n(c3C)CCNC4=O)n2)cc1S(=O)(=O)N1CCOCC1 [Example I-36, 6,8-Dimethyl-7-{2-[4-methyl-3-(morpholine-4-sulfonyl)-phenylamino]-pyrimidin-4-yl}-3,4-dihydro-2H-pyrrolo[1,2-a]pyrazin-1-one] and Cc1c(-c2ccnc(Nc3ccc(N4CCSCC4)cc3)n2)c(C)n2c1C(=O)NCC2 [Example I-37, 6,8-Dimethyl-7-[2-(4-thiomorpholin-4-yl-phenylamino)-pyrimidin-4-yl]-3,4-dihydro-2H-pyrrolo[1,2-a]pyrazin-1-one] cannot be ordered by IC50: less than 1000 nM for the first, less than 1000 nM for the second.
